Source: paper PMC12274840 (The Journal of Biological Chemistry, 2025)
Read-outs that look alike come from different tables or passages of the source.

How the values were obtained:
[1] = system: E. coli KA797 cells carrying pUK21 with BlaC WT (Tat); experiment: microbe, parasite or virus in culture; assay type: cell-based; settings: in combination with 100 μg/ml carbenicillin
[2] = system: E. coli KA797 cells carrying pUK21 with CTX-M-14 WT (Tat); experiment: microbe, parasite or virus in culture; assay type: cell-based; settings: in combination with 100 μg/ml carbenicillin
[3] = system: E. coli KA797 cells carrying pUK21 with NmcA (pelB/Sec); experiment: microbe, parasite or virus in culture; assay type: cell-based; settings: in combination with 25 μg/ml carbenicillin
[4] = system: E. coli KA797 cells carrying pUK21 with TEM-1 WT (Sec); experiment: microbe, parasite or virus in culture; assay type: cell-based; settings: in combination with 100 μg/ml carbenicillin
[5] = system: E. coli KA797 cells carrying BlaC position 105 library; assay type: cell-based, Escherichia coli; settings: for Fi AVG (average fitness): average of replicates

Molecule CC1(C)[C@H](C(=O)O)N2C(=O)C[C@H]2S1(=O)=O [sulbactam] has an MIC of inhibitor [1] of 4 µg/mL, an MIC of inhibitor [2] of 32 µg/mL and an MIC of inhibitor [3] of 32 µg/mL. The MIC of inhibitor [4] was 32 µg/mL, the “Fi AVG (average fitness)” value ([5]; AA 105 Ala (BlaC I105A), relative to WT Ile) was -0.022 and the “Fi AVG (average fitness)” value ([5]; AA 105 Arg (BlaC I105R), relative to WT Ile) was -0.000687. The “Fi AVG (average fitness)” value ([5]; AA 105 Asn (BlaC I105N), relative to WT Ile) was 0.167, the “Fi AVG (average fitness)” value ([5]; AA 105 Asp (BlaC I105D), relative to WT Ile) was -0.060 and the “Fi AVG (average fitness)” value ([5]; AA 105 Cys (BlaC I105C), relative to WT Ile) was -0.004. The “Fi AVG (average fitness)” value ([5]; AA 105 Gln (BlaC I105Q), relative to WT Ile) was 0.070, the “Fi AVG (average fitness)” value ([5]; AA 105 Glu (BlaC I105E), relative to WT Ile) was 0.009 and the “Fi AVG (average fitness)” value ([5]; AA 105 Gly (BlaC I105G), relative to WT Ile) was 0.023. The “Fi AVG (average fitness)” value ([5]; AA 105 His (BlaC I105H), relative to WT Ile) was 0.133, the “Fi AVG (average fitness)” value ([5]; AA 105 Ile (BlaC WT, reference)) was 0.000 and the “Fi AVG (average fitness)” value ([5]; AA 105 Leu (BlaC I105L), relative to WT Ile) was 0.101. For the same molecule, the “Fi AVG (average fitness)” value ([5]; AA 105 Lys (BlaC I105K), relative to WT Ile) was 0.043, the “Fi AVG (average fitness)” value ([5]; AA 105 Met (BlaC I105M), relative to WT Ile) was -0.015 and the “Fi AVG (average fitness)” value ([5]; AA 105 Phe (BlaC I105F), relative to WT Ile) was 0.205. The “Fi AVG (average fitness)” value ([5]; AA 105 Pro (BlaC I105P), relative to WT Ile) was 0.056, the “Fi AVG (average fitness)” value ([5]; AA 105 Ser (BlaC I105S), relative to WT Ile) was 0.083 and the “Fi AVG (average fitness)” value ([5]; AA 105 Thr (BlaC I105T), relative to WT Ile) was 0.012. For the same molecule, the “Fi AVG (average fitness)” value ([5]; AA 105 Trp (BlaC I105W), relative to WT Ile) was 0.218, the “Fi AVG (average fitness)” value ([5]; AA 105 Tyr (BlaC I105Y), relative to WT Ile) was 0.087 and the “Fi AVG (average fitness)” value ([5]; AA 105 Val (BlaC I105V), relative to WT Ile) was 0.121. The “WT abs Fi 1” value ([5]; absolute fitness of BlaC WT (Ile 105), replicate 1) was -0.251, the “WT abs Fi 2” value ([5]; absolute fitness of BlaC WT (Ile 105), replicate 2) was 0.228 and the “WT abs Fi 3” value ([5]; absolute fitness of BlaC WT (Ile 105), replicate 3) was -0.183.
